Earlier results on 1 molecule are cited in patent US8492081B2, “Aldehyde-fixed, dried platelets with covalently attached exogenous active agent and method of making thereof” (The University of North Carolina at Chapel Hill, priority 2003, dated 2013).

The test system of one data set is Punta Toro virus. Conditions: free ribavirin, not loaded on platelets; previously shown.
The conditions of data set [1]: Crotty et al., 2002.

The structures appear in SMILES notation.

Take `NC(=O)c1ncn([C@@H]2O[C@H](CO)[C@@H](O)[C@H]2O)n1` [ribavirin]: the “concentration range shown to inhibit Punta Toro virus replication in vitro” value with Punta Toro virus is listed as 4-10 micrograms per ml. Moreover, the “concentration range that exhibits antiviral activity in tissue culture” value in data set [1] was 10 to 100 µM.
